Measurements taken from patent publication US20080306285A1, “Heat-Labile Prodrugs” (priority 2007, published 2008).
Read-outs that look alike come from different tables or passages of the source.

What was measured:
[1] = FIG. 16, n=2
[2] = Pharmacokinetics of THC aerosol by inhalation in Beagle dogs; assay type: in vivo; conditions: for Cmax / Tmax / half-life: plasma (venous); for Cmax / Tmax / half-life / AUC(0-inf): 0.93 mg, inhalation 0.93 mg THC + 0.11 THCA, venous plasma THC; for Fraction of THC Emitted Dose in Exhalation: based on 924 μg THC emitted dose; for BA: inhalation vs IV; for THC in Exhaled Breath: 5 sec breath hold; for time of maximum arterial plasma concentration: arterial blood, FIG. 14; for time of venous plasma concentration peak: venous blood, FIG. 15
Experimental: A study was conducted in order to compare the pharmacokinetics (PK) of delivering THC by inhalation from a thermally labile prodrug to those of an intravenous (IV) bolus. A device consisting of a control electronics PC board, air-flow regulator, inhalation valve, air-flow meter, and indo-tracheal tube was used to generate and administer THC aerosol to Beagle dogs. Two safety mechanisms built into the device prevent harm to the test subject: one that closes the inhalation valve when the selected air volume is delivered to the test subject, and one that vents the system to ambient air if the circuit board loses control over the system (due to power failure, etc.).
The in vivo portion of the study was designed with a target THC emitted dose of 0.98 mg. Aerosol quality samples were captured prior to and immediately following animal dosing in a manner consistent with previous pre-PK development work and the animal dosing parameters. The emitted dose samples were collected on 2 μm Teflon filters, while the particle size samples were collected using an ACI fitted with glass fiber filters. After aerosol collection, the filters were stored in amber vials in a freezer prior to analysis. All results were within the acceptable range determined from a previous development study.
For the inhalation portion, four Beagle dogs (2 male/2 female) were exposed to THC aerosol by forced maneuver inhalation exposure. A breath hold of 5 sec was followed by exhalation into a Teflon filter. The filters were placed in vials for analysis using HPLC. Body weight, inhalation volume, exhalation volume, and quantity of THC in exhalation for each test subject are set forth in Table Three, below.
(§1) All blood samples measured 0.5 mL and were collected in plastic vials containing K2EDTA as the anticoagulant. The vials were placed on wet ice until centrifugation to recover the plasma. The plasma samples were analyzed for THC, THCA, and the major metabolite (11-nor-9-carboxy-Δ^9-tetrahydrocannabinol) of THC using a mass spectrometry method.
Immediately after simultaneous administration of the drug and the prodrug, blood samples were drawn from both the arterial and venous circulation of the test subjects. Arterial sampling was more frequent at the early time points and was stopped at 10 minutes, while venous sampling continued to 24 hours.
(§2) Non-compartmental modeling of the venous THC plasma concentrations was performed using WinNonlin™ (WinNonlin Professional Version 4.1, Pharsight Corp., Mountain View, Calif.). Characterization of the gamma (third) terminal linear phase for the inhalation and IV portions of the study allowed us to compare the inhalation pharmacokinetics to those of IV.

[3] = Pharmacokinetics of THC IV bolus in Beagle dogs; assay type: in vivo; conditions: dog, venous plasma, 0.9 mg, IV injection 0.9 mg THC
Experimental: Two weeks after dosing by inhalation, the same dogs were given a 0.9 mL (adjusted to match the aerosol output measured in the pre- and post-dose aerosol quality testing) bolus IV injection of THC (1 mg/mL THC and sodium ascorbate) in 0.9% NaCl aqueous solution.
as §1, §2

[4] = oral dronabinol formulations of THC, cited from earlier work
[5] = Physical stability drop tests of THCA coatings; assay type: physicochemical; conditions: up to 1.0 mg/cm^2 on stainless steel, after 6 months storage at various conditions
Text: An advantage of THCA is that it is a solid that forms a physically stable film, as opposed to Δ^9-THC, which is a viscous oil whose coated films are subject to flow.

[6] = Aerosol particle size by Anderson Cascade Impactor; assay type: physicochemical; conditions: THC aerosol from THCA film, 1 mg/cm^2, aerosol mass 1 mg, 28.3 L/min
Experimental: Particle size distribution is characterized by the mass median aerodynamic diameter (MMAD) and the geometric standard deviation (GSD). For thermal condensation aerosols, such as those disclosed herein and in our previous patent applications, particle size is governed by the competing mechanisms of condensation and Brownian aggregation.
All particle size experiments were conducted by vaporizing drug films into an 8-stage Anderson Cascade Impactor (ACI) fitted with a glass fiber filter. The ACI consists of several stages, with each successive stage having a smaller size cutoff. By extracting and determining the mass of drug deposited at each stage, it is possible to estimate the particle size distribution of the aerosol.
An air flow of 28.3 L/min was used to generate the aerosol and distribute it through the ACI. Each stage and filter was extracted with organic solvent and analyzed using HPLC. The MMAD and GSD were calculated from the quantity of aerosol on each stage. The MMAD for the THC aerosol (generated from THCA film, drug loading=1 mg/cm^2; aerosol mass=1 mg) was 2.2 μm and the GSD [84/16] was 2.2. In addition, the fine particle fraction (FPF, MMAD <5 μm) was over 95%. These values are well within the range normally accepted for effective pulmonary deposition.

[7] = Aerosolization of estradiol-t-BOC-Gly-Gly; assay type: physicochemical
Experimental: The prodrug, estradiol-t-BOC-Gly-Gly (shown in FIG. 12 and prepared as described above), was spray coated onto stainless steel test strips (1.347 mg; […] nominal film thickness). The test articles were placed in the screening device and heated by discharging a capacitor through the foils to thermally convert the prodrug back to estradiol and form a condensation aerosol. Tests were conducted on duplicate foils at each of three temperatures (325° C., 350° C., and 380° C.) determined by the discharge voltage of the capacitor. The aerosol was collected with a Teflon filter, and the trapped aerosol was extracted from the collection apparatus using organic solvent and analyzed using HPLC.
FIG. 17 is a bar graph 1700 showing percent estradiol in aerosol 1702 as a function of vaporization temperature 1704 (n=2). FIG. 18 is a bar graph 1800 showing percent prodrug in aerosol 1802 as a function of vaporization temperature 1804 (n=2).

[8] = Beagle, dog, inhaled or intranasal, subject 101
[9] = Beagle, dog, inhaled or intranasal, subject 102
[10] = Beagle, dog, inhaled or intranasal, subject 103
[11] = Beagle, dog, inhaled or intranasal, subject 104
[12] = both sexes, Beagle, dog, inhaled or intranasal, mean of 4 dogs

Structure (SMILES): CC(C)c1cccc(C(C)C)c1OC(=O)OC(C)(C)C [Propofol-t-BOC-Ester, O-(t-butoxycarbonyl)-propofol]
- aerosol purity of propofol as a function of vaporization temperature [1]: decrease with increasing vaporization temperature

Structure (SMILES): CCCCCc1cc(O)c2c(c1)OC(C)(C)[C@@H]1CCC(C)=C[C@@H]21 [THC, Δ^9-tetrahydrocannabinol]
- Cmax [2, 8]: 341 ng/mL
- Tmax [2, 8]: 3 min
- half-life [2, 8]: 21 min
- Cmax [2, 9]: 190 ng/mL
- Tmax [2, 9]: 2 min
- half-life [2, 9]: 32.5 min
- Cmax [2, 10]: 358 ng/mL
- Tmax [2, 10]: 2 min
- half-life [2, 10]: 22.7 min
- Cmax [2, 11]: 253 ng/mL
- Tmax [2, 11]: 2 min
- half-life [2, 11]: 55.8 min
- Fraction of THC Emitted Dose in Exhalation ([2]; subject 101): 2.8%
- Fraction of THC Emitted Dose in Exhalation ([2]; subject 102): 3.2%
- Fraction of THC Emitted Dose in Exhalation ([2]; subject 103): 2.4%
- Fraction of THC Emitted Dose in Exhalation ([2]; subject 104): 1.7%
- Cmax [2, 12]: 286 ng/mL
- Tmax [2, 12]: 2.3 min
- half-life [2, 12]: 33 min
- AUC(0-inf) ([2]; both sexes, Beagle, dog, venous plasma, inhaled or intranasal, mean of 4 dogs): 92.5 ng·h/mL
- bioavailability ([2]; both sexes, Beagle, dog, venous plasma, inhaled or intranasal, inhalation): 67%
- AUC(0-inf) ([2]; female, Beagle, dog, venous plasma, inhaled or intranasal, subject 103): 1140 ng·h/mL
- AUC(0-inf) ([2]; female, Beagle, dog, venous plasma, inhaled or intranasal, subject 104): 92.6 ng·h/mL
- difference in Tmax between THC and its prodrug Δ^9-THC-2-carboxylic acid ([2]; inhalation): 3 fold
- BA ([2]; mean of 4 dogs): 67.4%
- BA ([2]; subject 101): 59.7%
- BA ([2]; subject 102): 43.9%
- BA ([2]; subject 103): 84.5%
- BA ([2]; subject 104): 81.6%
- THC in Exhaled Breath ([2]; inhalation, subject 101 (M)): 26.2 µg
- THC in Exhaled Breath ([2]; inhalation, subject 102 (M)): 29.6 µg
- THC in Exhaled Breath ([2]; inhalation, subject 103 (F)): 22.3 µg
- THC in Exhaled Breath ([2]; inhalation, subject 104 (F)): 15.8 µg
- time of maximum arterial plasma concentration ([2]; inhalation): 90 s
- time of venous plasma concentration peak ([2]; inhalation): about 150 seconds
- AUC(0-inf) ([2]; male, Beagle, dog, venous plasma, inhaled or intranasal, subject 101): 99.4 ng·h/mL
- AUC(0-inf) ([2]; male, Beagle, dog, venous plasma, inhaled or intranasal, subject 102): 64.5 ng·h/mL
- AUC(0-inf) ([3]; both sexes, mean of 4 dogs): 142 ng·h/mL
- Cmax ([3]; both sexes, mean of 4 dogs): 1780 ng/mL
- Tmax ([3]; both sexes, mean of 4 dogs): 0.38 min
- half-life ([3]; both sexes, mean of 4 dogs): 50.8 min
- AUC(0-inf) ([3]; female, subject 103): 139 ng·h/mL
- Cmax ([3]; female, subject 103): 1410 ng/mL
- Tmax ([3]; female, subject 103): 0.25 min
- half-life ([3]; female, subject 103): 51.3 min
- AUC(0-inf) ([3]; female, subject 104): 118 ng·h/mL
- Cmax ([3]; female, subject 104): 1230 ng/mL
- Tmax ([3]; female, subject 104): 0.5 min
- half-life ([3]; female, subject 104): 36.6 min
- AUC(0-inf) ([3]; male, subject 101): 164 ng·h/mL
- Cmax ([3]; male, subject 101): 3770 ng/mL
- Tmax ([3]; male, subject 101): 0.25 min
- half-life ([3]; male, subject 101): 18.1 min
- AUC(0-inf) ([3]; male, subject 102): 146 ng·h/mL
- Cmax ([3]; male, subject 102): 697 ng/mL
- Tmax ([3]; male, subject 102): 0.5 min
- half-life ([3]; male, subject 102): 97.1 min
- bioavailability ([4]; typical): less than 50%
- Tmax [4]: up to 5 hours

Structure (SMILES): CCCCCc1cc2c(c(O)c1C(=O)O)C1C=C(C)CCC1C(C)(C)O2 (stereo not shown) [THCA, Δ^9-THC-2-carboxylic acid]
- physical stability of coating (drop tests) [5]: physically robust
- GSD [84/16] [6]: 2.2
- MMAD [6]: 2.2 μm
- fine particle fraction (FPF, MMAD <5 μm) [6]: over 95%
- absorption from the lung compared with THC ([2]; inhalation, FIGS. 14 and 15): substantially faster
- time of maximum arterial plasma concentration ([2]; inhalation): about 30 seconds
- time of venous plasma concentration peak ([2]; inhalation): about 50 seconds

Structure (SMILES): CC(C)(C)OC(=O)NCC(=O)NCC(=O)Oc1ccc2c(c1)CC[C@@H]1[C@@H]2CC[C@]2(C)[C@@H](O)CC[C@@H]12 [estradiol-t-BOC-Gly-Gly, 3-(t-butoxycarbonyl-glycinyl-glycinate)-estradiol]
- estradiol in aerosol ([7]; 325° C., 350° C., and 380° C., n=2, FIG. 17): approximately 94%
- unconverted prodrug in captured aerosol ([7]; 325° C., 350° C., and 380° C., n=2, FIG. 18): 1.5-2%
- thermal conversion of the precursor to estradiol ([7]; empirical studies): up to 95%
